Test results from patent publication US10273267B2, “Beta-hairpin peptidomimetics as selective elastase inhibitors” (POLYPHOR AG, priority 2013, dated 2019).
*1 amine or outer side, *2 acyl side, *3 side chain or, on linkers, in order; H or OH if unused. Where a SMILES comes first, the peptide text is derived from it. [ ]: non-standard residue; d: D form. Oic = O=C(O)[C@@H]1C[C@@H]2CCCC[C@@H]2N1; X1 = NCCCC[C@@H](CCC(=O)[*:2])N[*:1]; Gly(octyl) = CCCCCCCC[C@H](N)C(=O)O; hTyr = N[C@@H](CCc1ccc(O)cc1)C(=O)O; AllylGly = C=CC[C@H](N)C(=O)O; hSer = N[C@@H](CCO)C(=O)O; Aze = O=C(O)[C@@H]1CCN1; Dap = NC[C@H](N)C(=O)O

Experiments:
Type in all cases: biochemical
[1] = molecular target: T1, human neutrophil elastase (Homo sapiens, UniProt P08246); test: Inhibition of human neutrophil elastase (hydrolysis of MeOSuc-AAPV-pNA); settings: substrate MeOSuc-AAPV-pNA 0.3 mM, enzyme 10 nM, 37° C., pH 8; read-out: Human neutrophil elastase (hNE) IC50
T1 construct: purchased Serva Electrophoresis, Germany
T1 sequence (P08246 30-267): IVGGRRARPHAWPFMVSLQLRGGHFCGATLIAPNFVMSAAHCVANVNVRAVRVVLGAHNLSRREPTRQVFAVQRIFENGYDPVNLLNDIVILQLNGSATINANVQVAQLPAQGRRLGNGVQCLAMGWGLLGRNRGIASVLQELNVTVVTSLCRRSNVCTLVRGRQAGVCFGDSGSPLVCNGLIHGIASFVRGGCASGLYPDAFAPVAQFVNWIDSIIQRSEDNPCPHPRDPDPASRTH
Method: 2.2 Inhibition of Human Neutrophil Elastase
The ability of the peptides of the invention to inhibit the hydrolysis activity of human neutrophil elastase (Serva Electrophoresis, Germany) using the synthetic tetrapeptidic substrate MeOSuc-AAPV-pNA (Bachem, Switzerland) was determined as follows:
(§1) The above substrate (0.3 mM) and human neutrophil elastase (10 nM) were incubated at 37° C. with serial dilutions of the peptides (1% DMSO final) in assay buffer (50 mM Tris, pH 8, 300 mM NaCl, 0.01% Tween20). The release of pNA was followed by monitoring the change in absorbance at 405 nm for 30 minutes. Control assays with the same assay set-up as above, but without peptide, ran linearly. The dose-response data were fitted to the 4-parameter Hill equation providing the IC50 value using Graphpad (Prism 5).

[2] = molecular target: T2, porcine pancreatic elastase (Sus scrofa, UniProt P00772); test: Inhibition of porcine pancreatic elastase (hydrolysis of MeOSuc-AAA-pNA); settings: for hNE/PPE selectivity: ratio of PPE IC50 to hNE IC50; for IC50: substrate MeOSuc-AAA-pNA 1 mM, enzyme 15 nM, 37° C., pH8, read-out: Porcine pancreatic elastase (PPE) IC50
T2 construct: purchased Sigma, USA
T2 sequence (P00772 27-266): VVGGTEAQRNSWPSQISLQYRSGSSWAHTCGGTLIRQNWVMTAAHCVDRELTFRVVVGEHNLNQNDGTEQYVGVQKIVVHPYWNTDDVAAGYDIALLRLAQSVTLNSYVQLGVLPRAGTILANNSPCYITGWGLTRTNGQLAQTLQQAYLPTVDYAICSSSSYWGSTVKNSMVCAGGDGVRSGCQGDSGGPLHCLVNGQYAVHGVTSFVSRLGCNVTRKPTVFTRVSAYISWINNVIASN
Method: 2.3 Inhibition of Porcine Pancreatic Elastase
The ability of the peptides of the invention to inhibit the hydrolysis activity of porcine pancreatic elastase (Sigma, USA) using the synthetic tripeptidic substrate MeOSuc-AAA-pNA (Bachem, Switzerland) was determined as follows:
as §1, with “(1” for “(0.3”, “porcine pancreatic” for “neutrophil”, “(15” for “(10”, “(0.5%” for “(1%”, “pH8, 100” for “pH 8, 300”

human proteinase 3 = molecular target: T3, human proteinase 3 (Homo sapiens, UniProt P24158); test: Inhibition of human proteinase 3 (substrate Boc-Ala-Ala-Nva-SBzl); settings: for hNE/hPr3 selectivity: ratio of hPr3 IC50 to hNE IC50; for IC50: substrate Boc-Ala-Ala-Nva-SBzl 1 mM, enzyme 10 nM, 37° C., pH7.4, read-out: Human proteinase 3 (hPr3) IC50
T3 construct: purchased Elastin Products Company, USA
T3 sequence (P24158 28-248): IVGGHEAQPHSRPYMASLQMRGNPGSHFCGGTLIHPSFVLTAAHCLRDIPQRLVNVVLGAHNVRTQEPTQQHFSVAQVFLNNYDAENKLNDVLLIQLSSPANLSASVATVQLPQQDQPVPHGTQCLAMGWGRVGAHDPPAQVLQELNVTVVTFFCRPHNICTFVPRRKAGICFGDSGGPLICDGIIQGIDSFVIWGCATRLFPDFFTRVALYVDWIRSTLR
Method: 2.4 Inhibition of Human Proteinase 3
The inactivation of human proteinase 3 (Elastin Products Company, USA) by the peptides of the invention using synthetic tripeptidic substrate Boc-Ala-Ala-Nva-SBzl (Elastin Products Company, USA) was determined as follows:
as §1, with “(1 mM), 4,4′-dithiodipyridine (250 μM)” for “(0.3 mM)”, “proteinase 3” for “neutrophil elastase”, “(0.5%” for “(1%”, “pH7.4, 150” for “pH 8, 300”, “reaction process” for “release of pNA”, “340” for “405”

| Structure (SMILES) | IC50 [1] | hNE/PPE selectivity [2] | IC50 [2] | hNE/hPr3 selectivity (human proteinase 3) | IC50 (human proteinase 3) |
| --- | --- | --- | --- | --- | --- |
| CCCCCCCC[C@@H]1NC(=O)[C@@H]2CCCN2C(=O)[C@H]2CCCN2C(=O)[C@H](Cc2ccc(O)cc2)NC(=O)[C@H](CCCCN)NC(=O)[C@H](CCC(N)=O)NC(=O)[C@@H]2CCCN2C(=O)[C@@H]2CCCN2C(=O)[C@H]([C@@H](C)CC)NC(=O)[C@H](CO)NC(=O)[C@H](C)NC(=O)[C@H]([C@@H](C)O)NC(=O)[C@H](CNC(=O)[C@@H](N)Cc2ccccc2)NC1=O [Example 14, Cyclo(-OctGly-Dap(Phe)-Thr-Ala-Ser-Ile-Pro-Pro-Gln-Lys-Tyr-^DPro-Pro-)] (cyclo([Gly(octyl)][Dap](Phe)TASIPPQKY[dP]P)) | 0.015 µM | 367 | 5.5 µM | 1733 | 26 µM |
| CCCCCCCC[C@@H]1NC(=O)[C@@H]2CCCN2C(=O)[C@H]2CCCN2C(=O)[C@H]([C@@H](C)O)NC(=O)[C@H](CCCCN)NC(=O)[C@H](CCC(N)=O)NC(=O)[C@@H]2CCN2C(=O)[C@@H]2CCCN2C(=O)[C@H]([C@@H](C)CC)NC(=O)[C@H](CO)NC(=O)[C@H](C)NC(=O)[C@H]([C@@H](C)O)NC(=O)[C@H](CCC(=O)O)NC1=O [Example 46, Cyclo(-OctGly-Glu-Thr-Ala-Ser-Ile-Pro-Azt-Gln-Lys-Thr-^DPro-Pro-)] (cyclo([Gly(octyl)]ETASIP[Aze]QKT[dP]P)) | 0.0071 µM | 268 | 1.9 µM | 310 | 2.2 µM |
| CCCCCCCC[C@@H]1NC(=O)[C@@H]2CCCN2C(=O)[C@H]2CCCN2C(=O)[C@H](CCOC)NC(=O)[C@H](CCCCN)NC(=O)[C@H](CCC(N)=O)NC(=O)[C@@H]2CCCN2C(=O)[C@@H]2CCCN2C(=O)[C@H]([C@@H](C)CC)NC(=O)[C@H](CO)NC(=O)[C@H](C)NC(=O)[C@H]([C@@H](C)O)NC(=O)[C@H](CCC(=O)O)NC1=O [Example 1, Cyclo(-OctGly-Glu-Thr-Ala-Ser-Ile-Pro-Pro-Gln-Lys-hSer(Me)-^DPro-Pro-)] (cyclo([Gly(octyl)]ETASIPPQK[hSer](Me)[dP]P)) | 0.0048 µM | 129 | 0.62 µM | 150 | 0.72 µM |
| C=CC[C@@H]1NC(=O)[C@H]([C@@H](C)O)NC(=O)[C@H](CCC(=O)O)NC(=O)[C@H](CCC(=O)N[C@@H](Cc2ccccc2)C(=O)O)NC(=O)[C@@H]2CCCN2C(=O)[C@H]2CCCN2C(=O)[C@H]([C@@H](C)O)NC(=O)[C@H](CCCCN)NC(=O)[C@H](CCC(N)=O)NC(=O)[C@@H]2CCCN2C(=O)[C@@H]2CCCN2C(=O)[C@H]([C@@H](C)CC)NC(=O)[C@H](CO)NC1=O [Example 19, Cyclo(-Glu(Phe)-Glu-Thr-AllylGly-Ser-Ile-Pro-Pro-Gln-Lys-Thr-^DPro-Pro-)] (cyclo(E(Phe)ET[AllylGly]SIPPQKT[dP]P)) | 0.033 µM | >3030 | > 100 µM | >3030 | > 100 µM |
| CCCCCCCC[C@@H]1NC(=O)[C@@H]2CCCN2C(=O)[C@H]2CCCN2C(=O)[C@H]([C@@H](C)O)NC(=O)CC[C@H](CCCCN)NC(=O)[C@H](CCC(N)=O)NC(=O)[C@@H]2CCCN2C(=O)[C@@H]2CCCN2C(=O)[C@H]([C@@H](C)CC)NC(=O)[C@H](CO)NC(=O)[C@H](C)NC(=O)[C@H]([C@@H](C)O)NC(=O)[C@H](CCC(=O)O)NC1=O [Example 38, Cyclo(-OctGly-Glu-Thr-Ala-Ser-Ile-Pro-Pro-Gln-[H-γ^4-DiHLys-OH]-Thr-^DPro-Pro-)] (cyclo([Gly(octyl)]ETASIPPQ[X1]T[dP]P)) | 0.0172 µM | 535 | 9.2 µM | 535 | 9.2 µM |
| CCCCCCCC[C@@H]1NC(=O)[C@@H]2CCCN2C(=O)[C@H]2CCCN2C(=O)[C@H]([C@@H](C)O)NC(=O)[C@H](CCCCN)NC(=O)[C@H](CCC(N)=O)NC(=O)[C@@H]2C[C@@H]3CCCC[C@@H]3N2C(=O)[C@@H]2CCCN2C(=O)[C@H]([C@@H](C)CC)NC(=O)[C@H](CO)NC(=O)[C@H](C)NC(=O)[C@H]([C@@H](C)O)NC(=O)[C@H](CCC(=O)O)NC1=O [Example 10, Cyclo(-OctGly-Glu-Thr-Ala-Ser-Ile-Pro-Oic-GI n-Lys-Thr-^DPro-Pro-)] (cyclo([Gly(octyl)]ETASIP[Oic]QKT[dP]P)) | 0.0073 µM | 4959 | 36.2 µM | >13699 | > 100 µM |
| CCCCCCCC[C@@H]1NC(=O)[C@@H]2CCCN2C(=O)[C@H]2CCCN2C(=O)[C@H](CO)NC(=O)[C@H](CCCCN)NC(=O)[C@H](CCC(N)=O)NC(=O)[C@@H]2CCCN2C(=O)[C@@H]2CCCN2C(=O)[C@H]([C@@H](C)CC)NC(=O)[C@H](CO)NC(=O)[C@H](C)NC(=O)[C@H]([C@@H](C)O)NC(=O)[C@H](CCc2ccc(O)cc2)NC1=O [Example 47] (cyclo([Gly(octyl)][hTyr]TASIPPQKS[dP]P)) | 0.0014 µM | 357 | 0.5 µM | 714 | 1 µM |
| CCCCCCCC[C@@H]1NC(=O)[C@H](CCCCN)NC(=O)[C@@H](CO)NC(=O)[C@H]([C@@H](C)O)NC(=O)[C@H](CCCCN)NC(=O)[C@H](CCC(N)=O)NC(=O)[C@@H]2CCCN2C(=O)[C@@H]2CCCN2C(=O)[C@H]([C@@H](C)CC)NC(=O)[C@H](CO)NC(=O)[C@H](C)NC(=O)[C@H]([C@@H](C)O)NC(=O)[C@H](CCC(=O)O)NC1=O [Example 32, Cyclo(-OctGly-Glu-Thr-Ala-Ser-Ile-Pro-Pro-GI n-Lys-Thr-^DSer-Lys-)] (cyclo([Gly(octyl)]ETASIPPQKT[dS]K)) | 0.0223 µM | 4036 | 90 µM | >4484 | > 100 µM |
| CCCCCCCC[C@@H]1NC(=O)[C@H](C(C)C)NC(=O)[C@@H](CO)NC(=O)[C@H]([C@@H](C)O)NC(=O)[C@H](CCCCN)NC(=O)[C@H](CCC(N)=O)NC(=O)[C@@H]2CCCN2C(=O)[C@@H]2CCCN2C(=O)[C@H]([C@@H](C)CC)NC(=O)[C@H](CO)NC(=O)[C@H](C)NC(=O)[C@H]([C@@H](C)O)NC(=O)[C@H](CCC(=O)O)NC1=O [Example 30, Cyclo(-OctGly-Glu-Thr-Ala-Ser-Ile-Pro-Pro-Gln-Lys-Thr-^DSer-Val-)] (cyclo([Gly(octyl)]ETASIPPQKT[dS]V)) | 0.012 µM | 4267 | 51.2 µM | 1192 | 14.3 µM |
| CCCCCCCC[C@@H]1NC(=O)[C@@H]2CCCN2C(=O)[C@H]2CCCN2C(=O)[C@H](CCO)NC(=O)[C@H](CCCCN)NC(=O)[C@H](CCC(N)=O)NC(=O)[C@@H]2CCCN2C(=O)[C@@H]2CCCN2C(=O)[C@H]([C@@H](C)CC)NC(=O)[C@H](CO)NC(=O)[C@H](C)NC(=O)[C@H]([C@@H](C)O)NC(=O)[C@H](CCC(=O)O)NC1=O [Example 4, Cyclo(-OctGly-Glu-Thr-Ala-Ser-Ile-Pro-Pro-Gln-Lys-hSer-^DPro-Pro-)] (cyclo([Gly(octyl)]ETASIPPQK[hSer][dP]P)) | 0.0086 µM | 157 | 1.35 µM | 119 | 1.02 µM |
